Assay results: BigSolDB 2.1

COC(=O)/C=C/C(=O)OC
Conditions | solubility (mole fraction)
in ethanol, 289.95 K | 0.00328
in ethanol, 294.45 K | 0.00465
in ethanol, 297.55 K | 0.00607
in ethanol, 303.15 K | 0.00908
in ethanol, 307.3 K | 0.0122
in ethanol, 311.1 K | 0.0157
in ethanol, 314.75 K | 0.0199
in ethanol, 318.65 K | 0.0253
in ethanol, 322.55 K | 0.0326
in ethanol, 327.35 K | 0.0431
in ethanol, 331.85 K | 0.058
in ethanol, 336.05 K | 0.0751
in isopropanol, 295.8 K | 0.00533
in isopropanol, 300.95 K | 0.00748
in isopropanol, 304.35 K | 0.0097
in isopropanol, 306.7 K | 0.0117
in isopropanol, 309.85 K | 0.0148
in isopropanol, 312.55 K | 0.0183
in isopropanol, 316.85 K | 0.025
in isopropanol, 320 K | 0.0318
in isopropanol, 322.8 K | 0.0396
in isopropanol, 326.25 K | 0.0486
in isopropanol, 329.75 K | 0.0629
in isopropanol, 332.85 K | 0.0785
in isopropanol, 335.8 K | 0.0997
in methanol, 297.45 K | 0.00749
in methanol, 301 K | 0.00948
in methanol, 305.55 K | 0.0122
in methanol, 309.17 K | 0.0152
in methanol, 312.85 K | 0.0189
in methanol, 316.45 K | 0.0231
in methanol, 319.37 K | 0.0279
in methanol, 322.28 K | 0.0335
in methanol, 325.93 K | 0.04
in methanol, 329.15 K | 0.0491
in methanol, 332.3 K | 0.06
in methanol, 337.65 K | 0.081
in n-propanol, 295.2 K | 0.00504
in n-propanol, 299.95 K | 0.00668
in n-propanol, 304.35 K | 0.00906
in n-propanol, 307.85 K | 0.0114
in n-propanol, 310.7 K | 0.0138
in n-propanol, 313.2 K | 0.0174
in n-propanol, 318.7 K | 0.0253
in n-propanol, 323.65 K | 0.0369
in n-propanol, 328.95 K | 0.0535
in n-propanol, 332.5 K | 0.0686
in n-propanol, 335.65 K | 0.087
in n-propanol, 338.15 K | 0.106
in n-propanol, 341.3 K | 0.136
in propylene glycol, 302.75 K | 0.000378
in propylene glycol, 307.05 K | 0.000797
in propylene glycol, 310.55 K | 0.00143
in propylene glycol, 314.25 K | 0.00255
in propylene glycol, 316.75 K | 0.00366
in propylene glycol, 320.05 K | 0.00586
in propylene glycol, 323.25 K | 0.00886
in propylene glycol, 327.95 K | 0.0149
in propylene glycol, 332.15 K | 0.023
in propylene glycol, 337.25 K | 0.0349
in propylene glycol, 342.35 K | 0.051
in propylene glycol, 347.15 K | 0.073
in water, 300.55 K | 9.27e-05
in water, 302.6 K | 0.000116
in water, 309.85 K | 0.000236
in water, 315.45 K | 0.000365
in water, 322.4 K | 0.000575
in water, 328.05 K | 0.000781
in water, 333.25 K | 0.000989
in water, 337.05 K | 0.00113
in water, 340.65 K | 0.00132
in water, 344.45 K | 0.00148
